{"source": "patent US20220031596A1", "about": "“ANTI-AGING AGENT AND ANTI-AGING METHOD” (priority 2018, published 2022)", "assay_type_in_all_cases": "in vivo, human", "key": {"[1]": {"tested_on": "cortisol concentration in the plasma", "experiment": "Evaluation of cortisol secretion promoting effect (plasma cortisol, 24-week oral ingestion)", "conditions": "for cortisol concentration in the plasma, 0 weeks (before ingestion) / cortisol concentration in the plasma, 24 weeks (after ingestion) / cortisol concentration in the plasma, Change rate (24 weeks - 0 weeks): High Dose Group (200 mg/daily, oral), mean±SD; for cortisol concentration in the plasma, 0 weeks (before ingestion): baseline", "procedure": "In order to confirm a change in the cortisol quantity before and after ingestion of the nicotinamide mononucleotide, a test was conducted on healthy males and females aged 50 to 70 years.\nAs a sample of Working Example 11, a capsule formulation containing the nicotinamide mononucleotide and starch (200 mg of the nicotinamide mononucleotide in 4 capsules) (manufactured by SHINKOWA PHARMACEUTICAL Co., Ltd.) was used.\n(§1) Each group consisting of five healthy males and females aged 50 to 70 years in an unbiased age group ingested the above high dose capsule formulation once a day by 4 capsules for 24 weeks (total 10 subjects, 200 mg/daily ingestion). In order to conduct appropriate evaluations, those who had been regularly using medical products for chronic diseases, those who had been consuming healthy foods that may affect clinical research, and those who were currently participating in other clinical researches or clinical trials or had participated in other clinical researches or clinical trials within the last three months were excluded from the subject for the evaluation. The capsule formulations were ingested at 10 am (between meals and fasting state) together with water or lukewarm water (oral administration).\nMeasurement of the cortisol quantity in the plasma was conducted by requesting the measurement to an external public organization according to a usual method. FIGS. 22a to 22c indicate transitions of the cortisol concentration […] in the plasma for 24 weeks. FIG. 22a represents the transitions of the whole subjects; FIG. 22b represents the transitions of the male subjects; FIG. 22c represents the transitions of the female subjects. Further, FIGS. 23a to 23c indicate change rates (%) of the blood cortisol concentration up to 24 weeks when the nicotinamide mononucleotide was orally administered to the subjects for 24 weeks. FIG. 23a represents the change rates of the whole subjects; FIG. 23b represents the change rates of the male subjects; FIG. 23c represents the change rates of the female subjects. Further, Table 10 indicates the numerical values of the cortisol concentration (μg/dl) in the plasma before the ingestion of the nicotinamide mononucleotide (0 weeks) and after the ingestion of the nicotinamide mononucleotide (24 weeks). Note that the numerical values represent mean values±standard deviation."}, "[2]": {"tested_on": "thyroid-stimulating hormone concentration in the plasma", "experiment": "Evaluation of thyroid-stimulating hormone secretion promoting effect (plasma TSH, 24-week oral ingestion)", "conditions": "for thyroid-stimulating hormone concentration in the plasma, 0 weeks (before ingestion) / thyroid-stimulating hormone concentration in the plasma, 24 weeks (after ingestion) / thyroid-stimulating hormone concentration in the plasma, Change rate (24 weeks - 0 weeks): High Dose Group (200 mg/daily, oral), mean±SD; for thyroid-stimulating hormone concentration in the plasma, 0 weeks (before ingestion): baseline", "procedure": "In order to confirm a change in the thyroid-stimulating hormone quantity before and after ingestion of the nicotinamide mononucleotide, a test was conducted on healthy males and females aged 50 to 70 years.\nAs a sample of Working Example 4, a capsule formulation containing the nicotinamide mononucleotide and starch (200 mg of the nicotinamide mononucleotide in 4 capsules) (manufactured by SHINKOWA PHARMACEUTICAL Co., Ltd.) was used.\nas §1, with “above” for “above high dose”\nMeasurement of the thyroid-stimulating hormone quantity in the plasma was conducted by requesting the measurement to an external public organization according to a usual method. FIGS. 8a to 8c indicate transitions of the thyroid-stimulating hormone concentration (μU/ml) in the plasma for 24 weeks. FIG. 8a represents the transitions of the whole subjects; FIG. 8b represents the transitions of the male subjects; FIG. 8c represents the transitions of the female subjects. Further, FIGS. 9a to 9c indicate change rates (%) of the blood thyroid-stimulating hormone concentration up to 24 weeks when the nicotinamide mononucleotide was orally administered to the subjects for 24 weeks. FIG. 9a represents the change rates of the whole subjects; FIG. 9b represents the change rates of the male subjects; FIG. 9c represents the change rates of the female subjects. Further, Table 4 indicates the numerical values of the thyroid-stimulating hormone concentration (μU/ml) in the plasma before the ingestion of the nicotinamide mononucleotide (0 weeks) and after the ingestion of the nicotinamide mononucleotide (24 weeks). Note that the numerical values represent mean values±standard deviation."}, "[3]": {"tested_on": "growth hormone concentration in the plasma", "experiment": "Evaluation of growth hormone secretion promoting effect (plasma growth hormone, 24-week oral ingestion)", "conditions": "for growth hormone concentration in the plasma, 0 weeks (before ingestion) / growth hormone concentration in the plasma, 24 weeks (after ingestion) / growth hormone concentration in the plasma, Change rate (24 weeks - 0 weeks): High Dose Group (200 mg/daily, oral), mean±SD; for growth hormone concentration in the plasma, 0 weeks (before ingestion): baseline", "procedure": "In order to confirm a change in the growth hormone quantity before and after ingestion of the nicotinamide mononucleotide, a test was conducted on healthy males and females aged 50 to 70 years.\nAs a sample of Working Example 2, a capsule formulation containing the nicotinamide mononucleotide and starch (200 mg of the nicotinamide mononucleotide in 4 capsules) (manufactured by SHINKOWA PHARMACEUTICAL Co., Ltd.) was used.\nas §1, with “above” for “above high dose”\nMeasurement of the growth hormone quantity in the plasma was conducted by requesting the measurement to an external public organization according to a usual method. FIGS. 4a to 4c indicate transitions of the growth hormone concentration (ng/ml) in the plasma for 24 weeks. FIG. 4a represents the transitions of the whole subjects; FIG. 4b represents the transitions of the male subjects; FIG. 4c represents the transitions of the female subjects. Further, FIGS. 5a to 5c indicate change rates (%) of the blood growth hormone concentration up to 24 weeks when the nicotinamide mononucleotide was orally administered to the subjects for 24 weeks. FIG. 5a represents the change rates of the whole subjects; FIG. 5b represents the change rates of the male subjects; FIG. 5c represents the change rates of the female subjects. Further, Table 2 indicates the numerical values of the growth hormone concentration (ng/ml) in the plasma before the ingestion of the nicotinamide mononucleotide (0 weeks) and after the ingestion of the nicotinamide mononucleotide (24 weeks). Note that the numerical values represent mean values±standard deviation."}}, "data": [{"smiles": "NC(=O)c1ccc[n+]([C@@H]2O[C@H](COP(=O)([O-])O)[C@@H](O)[C@H]2O)c1", "note": "[nicotinamide mononucleotide]", "values": [{"measurement": "cortisol concentration in the plasma, 0 weeks (before ingestion)", "setting": "[1]; Female", "result": "6.82 ± 1.20", "unit": "µg/dL"}, {"measurement": "cortisol concentration in the plasma, 24 weeks (after ingestion)", "setting": "[1]; Female", "result": "10.56 ± 5.92", "unit": "µg/dL"}, {"measurement": "cortisol concentration in the plasma, Change rate (24 weeks - 0 weeks)", "setting": "[1]; Female", "result": "3.74 ± 6.16", "unit": "µg/dL"}, {"measurement": "cortisol concentration in the plasma, 0 weeks (before ingestion)", "setting": "[1]; Male", "result": "7.97 ± 2.50", "unit": "µg/dL"}, {"measurement": "cortisol concentration in the plasma, 24 weeks (after ingestion)", "setting": "[1]; Male", "result": "10.30 ± 4.47", "unit": "µg/dL"}, {"measurement": "cortisol concentration in the plasma, Change rate (24 weeks - 0 weeks)", "setting": "[1]; Male", "result": "2.33 ± 3.38", "unit": "µg/dL"}, {"measurement": "cortisol concentration in the plasma, 0 weeks (before ingestion)", "setting": "[1]; Whole Subjects", "result": "7.40 ± 1.94", "unit": "µg/dL"}, {"measurement": "cortisol concentration in the plasma, 24 weeks (after ingestion)", "setting": "[1]; Whole Subjects", "result": "10.43 ± 4.95", "unit": "µg/dL"}, {"measurement": "cortisol concentration in the plasma, Change rate (24 weeks - 0 weeks)", "setting": "[1]; Whole Subjects", "result": "3.04 ± 4.74", "unit": "µg/dL"}, {"measurement": "cortisol concentrations in the plasma, effect of ingestion (in words)", "setting": "[1]; oral, 200 mg/daily, 24 weeks, FIGS. 22a-22c, 23a-23c", "result": "increased"}, {"measurement": "thyroid-stimulating hormone concentration in the plasma, 0 weeks (before ingestion)", "setting": "[2]; Female", "result": "2.56 ± 1.27", "unit": "μU/ml"}, {"measurement": "thyroid-stimulating hormone concentration in the plasma, 24 weeks (after ingestion)", "setting": "[2]; Female", "result": "2.61 ± 1.15", "unit": "μU/ml"}, {"measurement": "thyroid-stimulating hormone concentration in the plasma, Change rate (24 weeks - 0 weeks)", "setting": "[2]; Female", "result": "0.05 ± 0.98", "unit": "μU/ml"}, {"measurement": "thyroid-stimulating hormone concentration in the plasma, 0 weeks (before ingestion)", "setting": "[2]; Male", "result": "2.57 ± 1.65", "unit": "μU/ml"}, {"measurement": "thyroid-stimulating hormone concentration in the plasma, 24 weeks (after ingestion)", "setting": "[2]; Male", "result": "2.97 ± 1.52", "unit": "μU/ml"}, {"measurement": "thyroid-stimulating hormone concentration in the plasma, Change rate (24 weeks - 0 weeks)", "setting": "[2]; Male", "result": "0.40 ± 1.38", "unit": "μU/ml"}, {"measurement": "thyroid-stimulating hormone concentration in the plasma, 0 weeks (before ingestion)", "setting": "[2]; Whole Subjects", "result": "2.57 ± 1.39", "unit": "μU/ml"}, {"measurement": "thyroid-stimulating hormone concentration in the plasma, 24 weeks (after ingestion)", "setting": "[2]; Whole Subjects", "result": "2.79 ± 1.29", "unit": "μU/ml"}, {"measurement": "thyroid-stimulating hormone concentration in the plasma, Change rate (24 weeks - 0 weeks)", "setting": "[2]; Whole Subjects", "result": "0.23 ± 1.14", "unit": "μU/ml"}, {"measurement": "thyroid-stimulating hormone concentrations in the plasma, effect of ingestion (in words)", "setting": "[2]; oral, 200 mg/daily, 24 weeks, FIGS. 8a-8c, 9a-9c", "result": "increased"}, {"measurement": "growth hormone concentration in the plasma, 0 weeks (before ingestion)", "setting": "[3]; Female", "result": "0.91 ± 0.28", "unit": "ng/mL"}, {"measurement": "growth hormone concentration in the plasma, 24 weeks (after ingestion)", "setting": "[3]; Female", "result": "2.14 ± 2.22", "unit": "ng/mL"}, {"measurement": "growth hormone concentration in the plasma, Change rate (24 weeks - 0 weeks)", "setting": "[3]; Female", "result": "1.24 ± 2.31", "unit": "ng/mL"}, {"measurement": "growth hormone concentration in the plasma, 0 weeks (before ingestion)", "setting": "[3]; Male", "result": "0.21 ± 0.12", "unit": "ng/mL"}, {"measurement": "growth hormone concentration in the plasma, 24 weeks (after ingestion)", "setting": "[3]; Male", "result": "2.41 ± 3.44", "unit": "ng/mL"}, {"measurement": "growth hormone concentration in the plasma, Change rate (24 weeks - 0 weeks)", "setting": "[3]; Male", "result": "2.20 ± 3.34", "unit": "ng/mL"}, {"measurement": "growth hormone concentration in the plasma, 0 weeks (before ingestion)", "setting": "[3]; Whole Subjects", "result": "0.56 ± 0.42", "unit": "ng/mL"}, {"measurement": "growth hormone concentration in the plasma, 24 weeks (after ingestion)", "setting": "[3]; Whole Subjects", "result": "2.28 ± 2.73", "unit": "ng/mL"}, {"measurement": "growth hormone concentration in the plasma, Change rate (24 weeks - 0 weeks)", "setting": "[3]; Whole Subjects", "result": "1.72 ± 2.76", "unit": "ng/mL"}, {"measurement": "growth hormone concentrations in the plasma, effect of ingestion (in words)", "setting": "[3]; oral, 200 mg/daily, 24 weeks, FIGS. 4a-4c, 5a-5c", "result": "increased"}]}]}
